Test results published in article doi:10.1101/2025.05.09.652710v1 (bioRxiv, 2025).

Key:
[1] = molecular target: TMPRSS2 (Homo sapiens, UniProt O15393, Q253D/R252D/R255K/S251D/S254D); test: Fluorogenic kinetic enzyme inhibitor assay, TMPRSS2; type: biochemical
[2] = test system: influenza A virus strain A/California/4/2009 (pdmH1N1); conditions: for H1N1 titer Log fold reduction (1 μM): virus strain A/California/4/2009 (pdmH1N1, 72 h, 1 μM); for H1N1 titer Log fold reduction (10 μM): virus strain A/California/4/2009 (pdmH1N1, 72 h, 10 μM)
[3] = molecular target: T1, HGFA (Homo sapiens, UniProt Q04756); test: Fluorogenic kinetic enzyme inhibitor assay, HGFA; type: biochemical
T1 sequence (Q04756 373-655): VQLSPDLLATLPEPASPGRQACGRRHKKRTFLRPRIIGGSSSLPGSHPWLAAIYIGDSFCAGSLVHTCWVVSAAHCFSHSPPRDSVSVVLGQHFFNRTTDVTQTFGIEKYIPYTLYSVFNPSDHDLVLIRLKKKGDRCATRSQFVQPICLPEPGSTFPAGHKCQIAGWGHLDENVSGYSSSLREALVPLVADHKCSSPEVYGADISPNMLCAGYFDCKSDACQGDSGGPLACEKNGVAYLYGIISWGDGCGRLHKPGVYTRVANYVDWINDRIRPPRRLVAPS

[4] = molecular target: thrombin (Homo sapiens, UniProt P00734); test: Chromogenic kinetic enzyme assay, thrombin; type: biochemical
[5] = test system: chimeric VSV SARS-CoV-2 virus; conditions: for EC50: chimeric VSV virus
[6] = molecular target: hepsin (Homo sapiens, UniProt P05981); test: Fluorogenic kinetic enzyme inhibitor assay, hepsin; type: biochemical
[7] = molecular target: T2, matriptase (Homo sapiens, UniProt Q9Y5Y6); test: Fluorogenic kinetic enzyme inhibitor assay, matriptase; type: biochemical
T2 sequence (Q9Y5Y6 615-855): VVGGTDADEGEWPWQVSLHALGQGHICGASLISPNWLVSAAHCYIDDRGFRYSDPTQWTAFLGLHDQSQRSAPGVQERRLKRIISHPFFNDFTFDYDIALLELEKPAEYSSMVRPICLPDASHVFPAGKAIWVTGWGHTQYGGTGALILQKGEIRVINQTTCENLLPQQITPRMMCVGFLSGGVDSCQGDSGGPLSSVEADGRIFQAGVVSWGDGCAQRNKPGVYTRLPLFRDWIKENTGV

hepsin, sequence (P05981 163-417 limits assumed): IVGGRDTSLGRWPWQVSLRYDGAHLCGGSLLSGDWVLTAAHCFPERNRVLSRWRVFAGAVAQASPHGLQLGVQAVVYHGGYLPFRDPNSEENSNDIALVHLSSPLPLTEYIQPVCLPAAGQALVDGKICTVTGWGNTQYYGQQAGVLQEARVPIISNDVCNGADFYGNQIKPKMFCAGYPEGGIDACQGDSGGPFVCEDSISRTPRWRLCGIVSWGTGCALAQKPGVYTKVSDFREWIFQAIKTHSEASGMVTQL
hepsin, sequence (P05981 45-162 partner limits assumed): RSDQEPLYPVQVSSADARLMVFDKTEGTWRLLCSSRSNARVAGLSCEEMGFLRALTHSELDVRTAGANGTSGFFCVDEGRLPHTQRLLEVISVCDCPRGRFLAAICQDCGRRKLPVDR
TMPRSS2, sequence (O15393 109-492 S251D/R252D/Q253D/S254D/R255K limits assumed): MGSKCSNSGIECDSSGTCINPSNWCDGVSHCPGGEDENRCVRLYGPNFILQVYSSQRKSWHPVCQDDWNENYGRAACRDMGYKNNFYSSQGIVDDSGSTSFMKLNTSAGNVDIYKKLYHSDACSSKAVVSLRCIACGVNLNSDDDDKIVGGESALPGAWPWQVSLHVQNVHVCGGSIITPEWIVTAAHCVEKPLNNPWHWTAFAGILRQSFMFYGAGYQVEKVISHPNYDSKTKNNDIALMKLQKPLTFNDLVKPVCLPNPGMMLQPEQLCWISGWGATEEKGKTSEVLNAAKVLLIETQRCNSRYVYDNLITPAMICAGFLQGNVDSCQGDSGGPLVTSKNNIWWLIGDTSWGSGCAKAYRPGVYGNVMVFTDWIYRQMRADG

| SMILES | IC50 [1] [nM] | H1N1 Fold inhibition @ 0.001 μM [2] | H1N1 Fold inhibition @ 0.01 μM [2] | H1N1 Fold inhibition @ 0.1 μM [2] | H1N1 Fold inhibition @ 1 μM [2] | H1N1 Fold inhibition @ 10 μM [2] | H1N1 titer Log fold reduction (1 μM) [2] | H1N1 titer Log fold reduction (10 μM) [2] | IC50 [3] [nM] | IC50 [4] [nM] | VSV SARS-CoV-2 Chimera EC50 [5] | EC50 [5] [nM] | IC50 [6] [nM] | IC50 [7] [nM] |
| --- | --- | --- | --- | --- | --- | --- | --- | --- | --- | --- | --- | --- | --- | --- |
| N=C(N)NCCC[C@H](NC(=O)[C@H](Cc1ccccc1)NC(=O)[C@H](CCC(N)=O)NC(=O)Cc1ccccc1)C(=O)c1nc2ccccc2s1 [CA1018, PhAc-QFR-kbt] | 0.41 |  |  |  |  |  |  |  |  |  |  |  |  |  |
| N=C(N)NCCC[C@H](NC(=O)[C@H](Cc1ccccc1)NC(=O)[C@H](CCC(N)=O)NCc1ccccc1)C(=O)c1nc2ccccc2s1 [CA1022, Bn-QFR-kbt] | 0.99 |  |  |  |  |  |  |  |  |  |  |  |  |  |
| N=C(N)NCCC[C@H](NC(=O)[C@H](Cc1ccccc1)NC(=O)[C@H](CCC(N)=O)NCCc1ccccc1)C(=O)c1nc2ccccc2s1 [CA1033, PhCH2CH2-QFR-kbt] | 0.32 |  |  |  |  |  |  |  |  |  |  |  |  |  |
| CN(C)[C@@H](CCC(N)=O)C(=O)N[C@@H](Cc1ccccc1)C(=O)N[C@@H](CCCNC(=N)N)C(=O)c1nc2ccccc2s1 [CA1041, Dimethyl-QFR-kbt] | 0.86 |  |  |  |  |  |  |  |  |  |  |  |  |  |
| N=C(N)NCCC[C@H](NC(=O)[C@H](Cc1ccccc1)NC(=O)[C@H](CCC(N)=O)NC(=O)c1ccccc1)C(=O)c1nc2ccccc2s1 [CA1043, Bz-QFR-kbt] | 0.08 | 1 | 1 | 5 | 968 | 774 | 3.1 | 3.0 |  |  |  |  |  |  |
| N=C(N)NCCC[C@H](NC(=O)[C@H](Cc1ccccc1)NC(=O)[C@H](CCC(N)=O)N1CCCCC1)C(=O)c1nc2ccccc2s1 [CA1046, Pip-QFR-kbt] | 8.2 |  |  |  |  |  |  |  |  |  |  |  |  |  |
| CS(=O)(=O)N[C@@H](CCC(N)=O)C(=O)N[C@@H](Cc1ccccc1)C(=O)N[C@@H](CCCNC(=N)N)C(=O)c1nc2ccccc2s1 [MF1099, MeSO2-QFR-kbt, reference compound] |  |  |  |  |  |  |  |  | 341 |  |  |  |  |  |
| N=C(N)NCCC[C@H](NC(=O)[C@H](Cc1ccccc1)NC(=O)[C@H](CCC(N)=O)NS(=O)(=O)c1ccccc1)C(=O)c1nc2ccccc2s1 [MF1101, PhSO2-QFR-kbt] | 1 | 1 | 1 | 4 | 1014 | 1321 | 2.9 | 3.3 | 17 |  |  |  |  |  |
| N=C(N)NCCC[C@H](NC(=O)[C@H](Cc1ccccc1)NC(=O)[C@H](CCC(N)=O)NS(=O)(=O)C1CC1)C(=O)c1nc2ccccc2s1 [MF1104, CypSO2-QFR-kbt] | 0.27 | 1 | 2 | 1 | 617 | 916 | 2.9 | 3.0 | 4.2 |  |  |  |  |  |
| N=C(N)NCCC[C@H](NC(=O)[C@H](Cc1ccccc1)NC(=O)[C@H](CCC(N)=O)NS(=O)(=O)Cc1ccccc1)C(=O)c1nc2ccccc2s1 [MF1105, BnSO2-QFR-kbt] | 0.07 |  |  |  |  |  |  |  | 6.5 | > 20000 |  |  |  |  |
| CC(=O)NCC(=O)N[C@@H](CCC(N)=O)C(=O)N[C@@H](Cc1ccccc1)C(=O)N[C@@H](CCCNC(=N)N)C(=O)c1nc2ccccc2s1 [MM3122, Ac-GQFR-kbt] | 0.03 | 2.1 | 4.2 | 27.5 | 2216 | 2952 | 3.4 | 4.3 |  |  | below nM | 0.43 |  |  |
| CC(=O)N1CCC[C@H]1C(=O)N[C@@H](CCC(N)=O)C(=O)N[C@@H](Cc1ccccc1)C(=O)N[C@@H](CCCNC(=N)N)C(=O)c1nc2ccccc2s1 [MM3123, Ac-PQFR-kbt] | 0.06 |  |  |  |  |  | 1.3 | 2.6 |  |  | below nM | 0.86 |  |  |
| CSCC[C@H](NC(C)=O)C(=O)N[C@@H](CCC(N)=O)C(=O)N[C@@H](Cc1ccccc1)C(=O)N[C@@H](CCCNC(=N)N)C(=O)c1nc2ccccc2s1 [MM3130, Ac-MQFR-kbt] | 0.14 |  |  | 1 | 27 | 510 | 1.4 | 2.7 |  |  |  | 48 |  |  |
| CC(=O)N[C@@H](CC(C)C)C(=O)N[C@@H](CCC(N)=O)C(=O)N[C@@H](Cc1ccccc1)C(=O)N[C@@H](CCCNC(=N)N)C(=O)c1nc2ccccc2s1 [MM3131, Ac-LQFR-kbt] | 0.03 |  |  |  |  |  |  |  |  |  |  | 11 |  |  |
| CC[C@H](C)[C@H](NC(C)=O)C(=O)N[C@@H](CCC(N)=O)C(=O)N[C@H](C(=O)N[C@@H](CCCNC(=N)N)C(=O)c1nc2ccccc2s1)C(C)C [MM3180, Ac-IQVR-kbt] | 0.03 |  |  | 2 | 135 | 359 | 2.1 | 2.6 | 799 | > 20000 |  | 12 | 0.11 | 0.76 |
| CC(=O)N1CCC[C@H]1C(=O)N[C@@H](CO)C(=O)N[C@@H](CCCCN)C(=O)N[C@@H](CCCNC(=N)N)C(=O)c1nc2ccccc2s1 [MM3194, Ac-PSKR-kbt] | 0.29 |  |  | 1 | 1 | 4 | 0 | 0.60 |  | > 20000 |  | 613 |  |  |
| CC[C@H](C)[C@H](NC(C)=O)C(=O)N[C@@H](CO)C(=O)N[C@@H](Cc1ccccc1)C(=O)N[C@@H](CCCNC(=N)N)C(=O)c1nc2ccccc2s1 [MM4009, Ac-ISFR-kbt] | 0.07 |  |  | 2 | 3 | 743 | 0.62 | 3.4 | 182 | > 20000 |  | 40 | 0.86 | 4.7 |
| CC[C@H](C)[C@H](NC(C)=O)C(=O)N[C@@H](CCSC)C(=O)N[C@@H](Cc1ccccc1)C(=O)N[C@@H](CCCNC(=N)N)C(=O)c1nc2ccccc2s1 [MM4027, Ac-IMFR-kbt] | 3 |  |  |  |  |  |  |  |  | > 20000 |  | 92 | 1.3 | 0.51 |
| CC[C@H](C)[C@H](NC(C)=O)C(=O)N[C@@H](CCSC)C(=O)N[C@@H](Cc1ccccc1)C(=O)N[C@H](CCCNC(=N)N)C(=O)c1nc2ccccc2s1 [MM4027-1, Ac-IMFdR-kbt] | 5.63 |  |  |  |  |  |  |  | 234 | > 20000 |  |  | 3.16 | 16.1 |
| CC[C@H](C)[C@H](NC(C)=O)C(=O)N[C@H](C(=O)N[C@@H](Cc1ccccc1)C(=O)N[C@@H](CCCNC(=N)N)C(=O)c1nc2ccccc2s1)[C@@H](C)O [MM4028, Ac-ITFR-kbt] | 0.06 |  |  |  |  |  |  |  | 182 | > 20000 |  | 103 | 0.86 | 4.7 |
| CC[C@H](C)[C@H](NC(C)=O)C(=O)N[C@H](C(=O)N[C@@H](Cc1ccccc1)C(=O)N[C@H](CCCNC(=N)N)C(=O)c1nc2ccccc2s1)[C@@H](C)O [MM4028-1, Ac-ITFdR-kbt] | 1.42 |  |  |  |  |  |  |  | 1120 | > 20000 |  |  |  |  |
| CC[C@H](C)[C@H](NC(C)=O)C(=O)N[C@@H](CCC(=O)O)C(=O)N[C@@H](Cc1ccccc1)C(=O)N[C@@H](CCCNC(=N)N)C(=O)c1nc2ccccc2s1 [MM4037, Ac-IEFR-kbt] | 0.11 |  |  |  |  |  |  |  | 276 | > 20000 |  | 24 | 0.35 | 2.4 |
| CC[C@H](C)[C@H](NC(C)=O)C(=O)N[C@@H](CCC(=O)O)C(=O)N[C@@H](Cc1ccccc1)C(=O)N[C@H](CCCNC(=N)N)C(=O)c1nc2ccccc2s1 [MM4037-1, Ac-IEFdR-kbt] | 0.38 |  |  |  |  |  |  |  | > 20000 | > 20000 |  |  |  |  |
| CC(=O)N[C@@H](Cc1c[nH]c2ccccc12)C(=O)N[C@@H](CC(C)C)C(=O)N[C@@H](Cc1ccccc1)C(=O)N[C@@H](CCCNC(=N)N)C(=O)c1nc2ccccc2s1 [ZFH7064, Ac-WLFR-kbt] | 0.09 |  |  |  |  |  |  |  |  |  |  |  |  |  |
| N=C(N)NCCC[C@H](NC(=O)[C@H](Cc1ccccc1)NC(=O)[C@H](CCC(N)=O)NC(=O)OCc1ccccc1)C(=O)c1nc2ccccc2s1 [ZFH9141, Cbz-QFR-kbt] | 0.42 | 2 | 6 | 483 | 578 | 578 | 2.8 | 2.8 | 85 |  |  |  |  |  |
